The series can be described thus: tissue distribution after single and repeated administration. The series is classed as in vivo, mice. To be noted: for concentration at 24 h: 20 mg/kg, mean ± SEM. The method, then: Via heparin-coated catheters a maximum of 50 µL blood was collected from the tail vein at 0.25, 0.5, 1, 2, 3, 4, 6, 8, or 24 h after administration and immediately centrifuged at 4000× g at 4 °C for 10 min. For repeated administration 20 mg/kg BW SH045 were administered at 8:00 a.m. on five consecutive days, once a day. Blood was taken 1 h and 24 h after drug administration. Tissue samples were harvested from isoflurane-euthanized animals at indicated time points. Mice were transcardially perfused with PBS and dissected tissues were washed to remove remaining blood. Plasma and tissue samples were stored at −80 °C until analysis. Urine was collected by bladder puncture at indicated time points.
For tissue analysis, homogenates (10% in phosphate-buffered saline, PBS) were prepared. Homogenate, plasma, and urine were mixed with IS and extracted with ice-cold ACN, centrifuged, filtered and stored in the autosampler at 6 °C until analysis in duplicates by LC-MS/MS (details in Supplementary Materials SM4).
Larixyl-N-methylcarbamate ((1S,4S,4aR,8aS)-4-((S)-3-hydroxy-3-methylpent-4-en-1-yl)-4a,8,8-trimethyl-3-methylenedeca-hydro-naphthalen-1-yl methylcarbamate, SH045, TRPC6 inhibitor) was synthesized as described by Häfner et al. [1]. (+)-Larixol (internal standard, IS) was isolated from Larix decidua turpentine [2]. Kolliphor® EL was obtained from Caelo (Hilden, Germany). Acetonitrile (ACN), water, and formic acid (LC -MS grade each) were purchased from Fisher Scientific (Schwerte, Germany). Testo sterone, 4-nitrophenol, β-nicotinamide adenine dinucleotide 2′ -phosphate reduced tetrasodium salt hydrate (β-NADPH), uridine 5′-diphosphoglucuronic acid ammonium salt (UDPGA), pilocarpine, ticlopidine, quercetin, sulfaphenazole, fluvoxamine, quinidine, 4-methyl pyrazole, ketoconazole, alamethicin and Dulbecco’s phosphate-buffered saline (DPBS, pH 7.4) were obtained from Merck (Darmstadt, Germany). Ciprofloxacin was purchased from Bayer AG (Leverkusen, Germany). Liver microsomes from mice (CD-1, male, MLM) and human (pooled: 50 donors, HLM) were obtained from Fisher Scientific (Gibco, protein concentration: 20 mg/mL respectively). Syringe filters (Phenex, regenerated cellulose, pore-size 0.2 μm) were purchased from Phenomenex (Aschaffenburg, Germany) and centrifugal filter units (30 kDa) from Merck Millipore […]
SM2 Quantification of SH045 by HPLC and tandem mass spectrometric methods (LC-MS/MS) In brief, chromatographic separation was achieved using a Zorbax Eclipse XDB-C8 column (100 × 3.0 mm, 3.5 μm 80 Å, Agilent Technologies) with linear gradient elution using water and ACN, each with 0.1 % formic acid as additive, during a total run time of 20 min. For quantification (+)-larixol was used as IS. MS detection was achieved by multiple reaction monitoring (MRM) scan mode for SH045 (m/z 364.3/289.3) and IS (m/z 307.2/151.2), respectively. Further conditions and parameters were set as reported previously [3]. Freshly prepared calibration samples for SH045 in plasma and tissue comprised eight concentration levels analyzed in duplicates (2, 5, 10, 100, 200, 800, 1200 and 1600 ng/mL). For metabolism studies in microsomes, SH045 was dissolved in pure DMSO. […]
All analyses for metabolite identification included comparative measurements of appropriate control samples in order to avoid false-positive results.
SM3 Histopathological examination of tissue repeatedly exposed to SH045 Liver, kidney and lung were collected after repeated administration for inspection for histopathological changes, fixed in 4% paraformaldehyde solution and embedded in paraffin. Tissue slices (6 µm) of three animals either of untreated controls or such assigned to repeated administration of SH045 were deparaffinized and hematoxylin and eosin-stained. At least 5 slices per animal and tissue were microscopically examined using a light microscope (Zeiss, […]
SM4 Preparation of samples for analysis of SH045 and its metabolites by LC-MS/MS […]

Molecules are shown by their SMILES. Read-outs that look alike come from different tables or passages of the source.

Consider `C=C[C@@](C)(O)CC[C@H]1C(=C)C[C@H](OC(=O)NC)[C@H]2C(C)(C)CCC[C@]12C` [SH045, (1S,4S,4aR,8aS)-4-((S)-3-Hydroxy-3-methylpent-4-en-1-yl)-4a,8,8-trimethyl-3-methylenedecahydronaphthalen-1-yl methylcarbamate], for which the “entry into the brain” value (20 mg/kg i.v.) is “entered the brain”. Besides, the “drug accumulation in tissues after repeated administration” value (20 mg/kg i.v. five times once a day) was “no hints for drug accumulation”. The concentration at 24 h was 19.6 ± 5.5 ng/g (male, C57BL/6, mouse, brain, iv, 24 h after repeated (5 days, once a day) 20 mg/kg BW i.v., read-out: Concentration, Brain); 14.8 ± 7.6 ng/g (male, C57BL/6, mouse, brain, iv, 24 h after single (1×) 20 mg/kg BW i.v., read-out: Concentration, Brain); 369 ± 50 ng/g (male, C57BL/6, mouse, fat, iv, 24 h after repeated (5 days, once a day) 20 mg/kg BW i.v., read-out: Concentration, Fat); 333 ± 61.2 ng/g (male, C57BL/6, mouse, fat, iv, 24 h after single (1×) 20 mg/kg BW i.v., read-out: Concentration, Fat); 17.8 ± 4.4 ng/g (male, C57BL/6, mouse, kidney, iv, 24 h after repeated (5 days, once a day) 20 mg/kg BW i.v., read-out: Concentration, Kidney); 14.8 ± 5.9 ng/g (male, C57BL/6, mouse, kidney, iv, 24 h after single (1×) 20 mg/kg BW i.v., read-out: Concentration, Kidney). For the same compound, the concentration at 24 h turned out to be 17.5 ± 4.6 ng/g (male, C57BL/6, mouse, liver, iv, 24 h after repeated (5 days, once a day) 20 mg/kg BW i.v., read-out: Concentration, Liver); 14.2 ± 5.2 ng/g (male, C57BL/6, mouse, liver, iv, 24 h after single (1×) 20 mg/kg BW i.v., read-out: Concentration, Liver); 2390 ± 1020 ng/g (male, C57BL/6, mouse, lung, iv, 24 h after repeated (5 days, once a day) 20 mg/kg BW i.v., read-out: Concentration, Lung); 2170 ± 414 ng/g (male, C57BL/6, mouse, lung, iv, 24 h after single (1×) 20 mg/kg BW i.v., read-out: Concentration, Lung). Where the note is “male, C57BL/6, mouse, lung, iv, 20 mg/kg BW, after i.v. administration, read-out: first-pass uptake into the lung relative to respective plasma concentration”, the Kp is roughly 20.
